# Data from patent US11512268B2, “Storage-stable enzyme preparations, their production and use” (BASF SE, priority 2017, dated 2022).
# What was measured:
# Lipolase = biological target: T1, Lipolase (Thermomyces lanuginosus, UniProt O59952); experiment: storage stability of lipase (Lipolase activity, pNitrophenol-valerate substrate) in liquid formulations at 37° C.; format: biochemical, Thermomyces lanuginosa; details: Lipolase 0.4 wt %, storage at 37° C.
# T1 construct: purchased Sigma-Aldrich
# T1 sequence (O59952 23-291): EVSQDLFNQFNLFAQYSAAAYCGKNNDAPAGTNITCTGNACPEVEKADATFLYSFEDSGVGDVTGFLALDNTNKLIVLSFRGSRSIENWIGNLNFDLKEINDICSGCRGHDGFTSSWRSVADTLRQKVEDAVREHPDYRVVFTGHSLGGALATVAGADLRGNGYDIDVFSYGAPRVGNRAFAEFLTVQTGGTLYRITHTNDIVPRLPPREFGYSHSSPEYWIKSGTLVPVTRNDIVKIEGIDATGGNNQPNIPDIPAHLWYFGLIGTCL
# Procedure: (§1) The storage stability of Lipase and Protease in water was assessed at 37° C.
# (§2) Base test formulations were manufactured by making base formulations I to VI by mixing the components according to Table 1.
# (§3) The respective salt (component (a)) or comparative compound was added, if applicable, to the respective base formulation in amounts as indicated in Table 1.
# (§4) The amount of enzyme as provided in Table 1 refers to active protein. Either lipase or protease was added, depending on which enzyme activity was measured.
# (§5) Lipolase® 100 L (CAS-No. 9001-62-1, EC-No. 232-619-9) was purchased from Sigma-Aldrich. Savinase® 16.0 L (CAS-No. 9014-01-1, EC-No. 232-752-2) was purchased from Sigma-Aldrich.
# Lipolase activity at certain points in time as indicated in Table 2 was be determined by employing pNitrophenol-valerate (2.4 mM pNP-C5 in 100 mM Tris pH 8.0, 0.01% Triton X100) as a substrate. The absorption was measured at 20° C. every 30 seconds over 5 minutes at 405 nm. The slope (absorbance increase at 405 nm per minute) of the time dependent absorption-curve is directly proportional to the activity of the lipase.
# The lipolytic activity values provided in Table 2 were calculated referring to the 100% value determined in the reference formulation at the time 0.
# (§6) The nomenclature of formulations is as follows: the Roman number before the full stop characterizes the base formulation, the Arabian number the type of salt (A.# inventive salt (component (a)); C-(A.#) comparative compound). Zero (“0”): no salt, but diethylene glycol.
# Savinase = biological target: T2, Savinase (Lederbergia lenta, UniProt P29600); experiment: storage stability of protease (Savinase activity, Suc-AAPF-pNA substrate) in liquid formulations at 37° C.; format: biochemical; details: component (a) 2.5 wt %, Savinase 16.0 L 0.5 wt %, storage at 37° C.
# T2 construct: purchased Sigma-Aldrich
# T2 sequence (P29600 1-269): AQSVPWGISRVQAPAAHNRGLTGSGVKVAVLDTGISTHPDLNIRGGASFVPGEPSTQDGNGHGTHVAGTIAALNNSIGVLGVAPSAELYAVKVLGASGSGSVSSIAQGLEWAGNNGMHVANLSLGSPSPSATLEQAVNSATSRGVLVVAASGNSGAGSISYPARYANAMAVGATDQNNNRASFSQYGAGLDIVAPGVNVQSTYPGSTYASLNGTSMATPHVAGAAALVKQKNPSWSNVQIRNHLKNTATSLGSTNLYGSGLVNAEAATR
# Procedure: as §1, §2, §3, §4, §5
# Savinase activity at certain points in time as indicated in Table 3 was be determined by employing Succinyl-Ala-Ala-Pro-Phe-p-nitroanilide (Suc-AAPF-pNA, short AAPF) as substrate. pNA is cleaved from the substrate molecule by proteolytic cleavage, resulting in release of yellow color of free pNA which was determined by measuring OD405. Measurement were done at 20° C.
# The proteolytic activity values provided in Table 3 were calculated referring to the 100% value determined in the reference formulation at the time 0.
# as §6
# [1] = base formulation I., component (a) 2.5 wt %, 1 d
# [2] = base formulation I., component (a) 2.5 wt %, 3 d
# [3] = base formulation I., component (a) 2.5 wt %, 6 d
# [4] = base formulation I., component (a) 2.5 wt %, 10 d
# [5] = base formulation I., component (a) 2.5 wt %, 15 d
# [6] = base formulation I., component (a) 2.5 wt %, 20 d
# [7] = base formulation I., component (a) 2.5 wt %, 25 d
# [8] = base formulation I., component (a) 2.5 wt %, 30 d
# [9] = base formulation I., component (a) 2.5 wt %, T0
# [10] = base formulation IV., component (a) 4.0 wt %, 1 d
# [11] = base formulation IV., component (a) 4.0 wt %, 3 d
# [12] = base formulation IV., component (a) 4.0 wt %, 6 d
# [13] = base formulation IV., component (a) 4.0 wt %, 10 d
# [14] = base formulation IV., component (a) 4.0 wt %, 15 d
# [15] = base formulation IV., component (a) 4.0 wt %, 20 d
# [16] = base formulation IV., component (a) 4.0 wt %, 25 d
# [17] = base formulation IV., component (a) 4.0 wt %, 30 d
# [18] = base formulation IV., component (a) 4.0 wt %, T0
SMILES,lipase activity (Lipolase; [1]),lipase activity (Lipolase; [2]),lipase activity (Lipolase; [3]),lipase activity (Lipolase; [4]),lipase activity (Lipolase; [5]),lipase activity (Lipolase; [6]),lipase activity (Lipolase; [7]),lipase activity (Lipolase; [8]),lipase activity (Lipolase; [9]),lipase activity (Lipolase; [10]),lipase activity (Lipolase; [11]),lipase activity (Lipolase; [12]),lipase activity (Lipolase; [13]),lipase activity (Lipolase; [14]),lipase activity (Lipolase; [15]),lipase activity (Lipolase; [16]),lipase activity (Lipolase; [17]),lipase activity (Lipolase; [18]),"protease activity (Savinase; base formulation I., 1 d)","protease activity (Savinase; base formulation I., 3 d)",also measured
C[N+](C)(C)CCO.C[N+](C)(C)CCO.O=C([O-])C(O)C(O)C(=O)[O-] (stereo not drawn) [C-(A.16)],90%,81%,68%,51%,40%,34%,25%,24%,95%,90%,81%,67%,55%,41%,34%,28%,25%,95%,91%,84%,"lipase activity (Lipolase; base formulation V., component (a) 4.0 wt %, 1 d): 92%; lipase activity (Lipolase; base formulation V., component (a) 4.0 wt %, 3 d): 85%; lipase activity (Lipolase; base formulation V., component (a) 4.0 wt %, 6 d): 70%; lipase activity (Lipolase; base formulation V., component (a) 4.0 wt %, 10 d): 65%; lipase activity (Lipolase; base formulation V., component (a) 4.0 wt %, 15 d): 58%; lipase activity (Lipolase; base formulation V., component (a) 4.0 wt %, 20 d): 49%; lipase activity (Lipolase; base formulation V., component (a) 4.0 wt %, 25 d): 37%; lipase activity (Lipolase; base formulation V., component (a) 4.0 wt %, 30 d): 28%; lipase activity (Lipolase; base formulation V., component (a) 4.0 wt %, T0): 96%; protease activity (Savinase; base formulation I., 6 d): 66%; protease activity (Savinase; base formulation I., 10 d): 49%; protease activity (Savinase; base formulation I., 15 d): 38%; protease activity (Savinase; base formulation I., 20 d): 30%; protease activity (Savinase; base formulation I., 25 d): 23%; protease activity (Savinase; base formulation I., 30 d): 10%; protease activity (Savinase; base formulation I., T0): 98%"
C[N+](C)(C)CCO.C[N+](C)(C)CCO.O=C([O-])CC(O)(CC(=O)O)C(=O)[O-] [C-(A.17)],90%,80%,70%,53%,42%,38%,33%,29%,97%,93%,86%,74%,63%,51%,46%,38%,33%,96%,90%,81%,"protease activity (Savinase; base formulation I., 6 d): 70%; protease activity (Savinase; base formulation I., 10 d): 49%; protease activity (Savinase; base formulation I., 15 d): 38%; protease activity (Savinase; base formulation I., 20 d): 30%; protease activity (Savinase; base formulation I., 25 d): 23%; protease activity (Savinase; base formulation I., 30 d): 12%; protease activity (Savinase; base formulation I., T0): 98%; protease activity (Savinase; base formulation III., 1 d): 94%; protease activity (Savinase; base formulation III., 3 d): 83%; protease activity (Savinase; base formulation III., 6 d): 71%; protease activity (Savinase; base formulation III., 10 d): 53%; protease activity (Savinase; base formulation III., 15 d): 42%; protease activity (Savinase; base formulation III., 20 d): 34%; protease activity (Savinase; base formulation III., 25 d): 27%; protease activity (Savinase; base formulation III., 30 d): 14%; protease activity (Savinase; base formulation III., T0): 92%"
